Experimental findings from patent US9974761B2, “Medications for deposition on biological surfaces” (The Procter & Gamble Company, priority 2014, dated 2018) are described below.

In this assay the target is T1, human TRPM8.
T1 construct: Receptor Activity TRPM8; Receptor Activity TRPM8; other: test compound at 0.001%; relative to WS5 control (30 microMolar); HEK 293 cells; other: test compound at 0.004%; other: test compound at 5.2E−5%; relative to WS5 control
Kind of assay: TRPM8 Protocol-FLIPR Assay (intracellular Ca2+). It is filed as cell-based. Conditions: for TRPM8 Time Course Activity 5 min % of WS5 / TRPM8 Time Course Activity 10 min % of WS5: dose 12.2 nM, vs 30 uM WS-5. The procedure:
To determine whether TRPM8 is activated, the intracellular calcium ion (Ca^2+) level was measured from transfected cells with the TRPM8 receptor sequence (SEQ ID NO: 3). HEK-293 (human embryonic kidney) cells stably transfected with human TRPM8 were grown in 15 ml growth medium (high glucose DMEM (Dulbecco's Modification of Eagle's Medium) supplemented with 10% FBS (fetal bovine serum), 100 ug/ml penicillin/streptomycin, 5 μg/ml blasticindin, and 100 μg/ml zeocin) in a 75 cm^2 flask for 3 days at 37° C. in a mammalian cell culture incubator set at 5% CO2 Cells were detached with addition of 2 ml of trypsin-EDTA buffer (GIBCO® 25200, Invitrogen, Grand Island, N.Y.) for about 2-3 min. Trypsin was inactivated by addition of 8 ml growth medium. Cells were transferred to a 50 ml tube and centrifuged at 850 rpm for 3 minutes to remove medium. After centrifugation, a pellet of cells was formed in the bottom of the tube separating them from the supernatant solution. The supernatant was discarded and the cell pellet was suspended in 1 ml of fresh growth medium to which 5 μl (12.5 μg) of Fluo-4 AM (Molecular Probes, Inc., Eugene, Oreg.) calcium indicator was added and incubated for 30 min with gentle shaking. Fluo-4 AM is a fluorescent dye used for quantifying cellular Ca^2+ concentrations in the 100 nM to 1 microM range. At the end of 30 minutes, 45 ml of assay buffer (1× HBSS (Hank's Balanced Salt Solution), 20 mM HEPES (4-(2-Hydroxyethyl)-1-piperazineethanesulfonic acid)) was added to wash cells and the resulting mixture was then centrifuged at 850 rpm for 3 minutes to remove excess buffer and Fluo-4 AM calcium indicator.
The pelleted cells were re-suspended in 10 ml assay buffer and 90 μl aliquots (˜50,000 cells) per well delivered to a 96-well assay plate containing 10 μl of test compounds (1 mM in assay buffer, […]) or buffer control and incubated at room temperature for 30 minutes. After 30 minutes, a plate was placed into a fluorometric imaging plate reader (FLIPR384 from Molecular Devices, Sunnyvale, Calif.) and basal fluorescence recorded (excitation wave length 488 nm and emission wave length 510 nm). Then 20 μl of […] of TRPM8 agonist WS5 coolant in the assay buffer was added and fluorescence recorded. For determining the direct effect of test compounds on TRPM8, fluorescence was measured immediately after addition of each compound (TABLES 2 and 3). Additional discussion of the FLIPR method can be found in Smart et al., Characterization using FLIPR of human vanilloid VR1 receptor pharmacology, European Journal of Pharmacology 417, 51-58 (2001) and Liu et al., Development and validation of a platelet calcium flux assay using a fluorescent imaging plate reader, Analytical Biochemistry 357, 216-224 (2006).
TRPM8 activation was determined by measuring intracellular calcium ion (Ca^2+) level from transfected cells with the TRPM8 receptor gene, as described in EXAMPLE 1, the results of which are shown in TABLES 4 and 5.

With `CC(C)[C@@H]1CC[C@@H](C)C[C@H]1C(=O)NCC(NC(=O)[C@@H](C)N)c1ccccc1` (single isomer, unassigned) [Compound 28 fraction 1], under “3 min”, the EC50 came out at 1.48 nM. For the same compound, where the note is “5 min”, the “TRPM8 Time Course Activity 5 min % of WS5” value came out at 103.8%. Also, the “TRPM8 Time Course Activity 10 min % of WS5” value (10 min) stood at 115.5%.
`CC(C)[C@@H]1CC[C@@H](C)C[C@H]1C(=O)NCC(NC(=O)[C@@H](C)N)c1ccccc1` (single isomer, unassigned) [Compound 28 fraction 2] showed an EC50 (3 min) of 55.5 nM. Where the note is “5 min”, the EC50 amounted to 45.7 nM and the “TRPM8 Time Course Activity 5 min % of WS5” value is 65.7%. Besides, where the note is “10 min”, the midpoint of the response, the EC50, lay at 37.4 nM and the “TRPM8 Time Course Activity 10 min % of WS5” value amounted to 71.1%.

The EC50 is the midpoint of the concentration-response curve.
